Each structure is given as a SMILES string. Records with an inconclusive call do not appear. The source made the active and inactive calls.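 How the source made its calls: active means Compounds that reduce signal, with fitted half-maximal dose at or under twice the top valid tested dose; inconclusive means Poor fit, or flat curve losing 30 to 70% of signal; inactive means Potency past limit, flat within 30%, or opposite direction.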

A short description of one assay: HEK293T cell cytotoxicity, dose response, cytotoxicity control, ATP luminescence, cherry-pick samples (AID 687005). Conditions: HEK293T viability, ATP luminescence (CellTiter-Glo), 48 h; at 23.5 µM (top of the series). (In ATP-based viability assays light output follows the ATP content of the culture.)
On to `COCCNC(=O)C[C@@H]1C[C@H]2c3cc(NC(=O)C4CCOCC4)ccc3O[C@H]2[C@H](CO)O1`, for which the activity change, negative = cytotoxicity was 25.9% (inactive).

`C[C@@H]1CN([C@@H](C)CO)C(=O)c2cc(NC(=O)Nc3ccc(F)cc3)ccc2O[C@@H](C)CCCCO[C@H]1CN(C)S(=O)(=O)c1ccccc1`: the activity change, negative = cytotoxicity was 3.48% (inactive).

As to `CN1C(=O)c2cc(NS(C)(=O)=O)ccc2OC[C@@H]2O[C@@H](CC(=O)O)CC[C@@H]21`, the activity change, negative = cytotoxicity was -2.71% (inactive).

Take `O=C(C[C@H]1CC[C@@H]2[C@H](COC[C@@H](O)CN2Cc2cccc(C(F)(F)F)c2)O1)NCc1ccc(Cl)cc1`: the activity change, negative = cytotoxicity is 16.8% (inactive).

On to `C[C@H]1CN([C@@H](C)CO)C(=O)Cc2cc(NC(=O)Nc3ccccc3)ccc2O[C@@H]1CN(C)C(=O)Nc1ccc2c(c1)OCO2`, for which the activity change, negative = cytotoxicity was -18.7% (inactive).

Take `Cc1noc(C)c1NC(=O)N(C)C[C@H]1OCCCC[C@H](C)Oc2ccc(NC(=O)NC(C)C)cc2C(=O)N([C@@H](C)CO)C[C@@H]1C`: the activity change, negative = cytotoxicity was 68% (inactive).

On to `COC(=O)C1=C(C)N(Cc2ccccc2)C(=S)NC1c1ccc(Br)cc1` (stereo not drawn), for which the activity change, negative = cytotoxicity was -9.89% (inactive).

Consider `COc1ccc(CN(C)C[C@H]2OCCCC[C@@H](C)Oc3ccc(NC(=O)c4ccccc4)cc3C(=O)N([C@H](C)CO)C[C@@H]2C)cc1`, for which the activity change, negative = cytotoxicity is -10.4% (inactive).

The assay is the same for the next values; noted with them: HEK293T viability, ATP luminescence (CellTiter-Glo), 48 h; at 26 µM (top of the series).
For the molecule `O=C(C[C@H]1CC[C@H](NC(=O)Nc2ccc(C(F)(F)F)cc2)[C@H](CO)O1)NCc1cccc(F)c1`, the activity change, negative = cytotoxicity is 11.3% (inactive).

As for `CO[C@@H]1CN(C)C(=O)c2ccc(NC(=O)C3CC3)cc2OC[C@H](C)N(Cc2ccc(F)cc2)C[C@H]1C`, the activity change, negative = cytotoxicity was -10.4% (inactive).

As to `CC(=O)N(C)C[C@H]1Oc2cc(C#Cc3ccc(F)cc3)ccc2S(=O)(=O)N([C@H](C)CO)C[C@@H]1C`, the activity change, negative = cytotoxicity was 53% (inactive).

`COc1ccc(NC(=S)NCc2ccc(Cl)cc2)c(OC)c1`: the activity change, negative = cytotoxicity is 0.916% (inactive).

As for `COc1cccc(CNC(=O)COc2ccc(C(=O)c3ccccc3)cc2)c1`, the activity change, negative = cytotoxicity was 10% (inactive).

For the molecule `COc1ccc(CNC(=O)C[C@H]2CC[C@H]3[C@@H](COc4ccc(NC(=O)C5CC5)cc4C(=O)N3C)O2)cc1`, the activity change, negative = cytotoxicity is 26% (inactive).

On to `C[C@@H]1CCCCO[C@@H](CN(C)C(=O)Nc2cccc3ccccc23)[C@@H](C)CN([C@H](C)CO)C(=O)c2cc(NS(=O)(=O)c3ccccc3)ccc2O1`, for which the activity change, negative = cytotoxicity was 6.51% (inactive).

`C[C@H]1CCCCO[C@H](CN(C)C(=O)c2ccncc2)[C@@H](C)CN([C@@H](C)CO)C(=O)c2cc(NC(=O)Cc3ccccc3)ccc2O1`: the activity change, negative = cytotoxicity was -3.36% (inactive).

On to `Cc1noc(C)c1NC(=O)Nc1cccc2c1O[C@H](CN(C)S(=O)(=O)c1cn(C)cn1)[C@H](C)CN([C@H](C)CO)C2=O`, for which the activity change, negative = cytotoxicity was -29.5% (inactive).

On to `COc1ccccc1C(=O)N1C[C@H]2[C@@H](c3ccccc31)[C@@H](CO)N2C(=O)Cc1ccccc1`, for which the activity change, negative = cytotoxicity was -6.87% (inactive).

Take `COCCNC(=O)C[C@H]1CC[C@@H]2[C@H](COC[C@H](O)CN2S(=O)(=O)c2ccccc2C)O1`: the activity change, negative = cytotoxicity is 15.9% (inactive).

Consider `CC=Cc1ccc2n(c1=O)C[C@H]1[C@H](CO)[C@@H](C(=O)N3CCOCC3)N(CC3CC3)[C@@H]21` (mixture of isomers), for which the activity change, negative = cytotoxicity was 2.31% (inactive).

In the case of `CO[C@@H]1CN(C)C(=O)c2cc(NS(=O)(=O)C3CCCCC3)ccc2OC[C@H](C)NC[C@@H]1C`, the activity change, negative = cytotoxicity is 0.127% (inactive).

For the molecule `CO[C@H]1CN(C)C(=O)c2cc(NS(=O)(=O)c3ccc(C)cc3)ccc2OC[C@H](C)N(C)C[C@H]1C`, the activity change, negative = cytotoxicity was 13.7% (inactive).

Take `C[C@H]1CCCCO[C@@H](CN(C)C(=O)c2ccccc2)[C@@H](C)CN([C@@H](C)CO)C(=O)c2cc(NC(=O)c3ccncc3)ccc2O1`: the activity change, negative = cytotoxicity is -3.03% (inactive).

As to `Cc1noc(C)c1NC(=O)Nc1ccc2c(c1)C(=O)N([C@@H](C)CO)C[C@H](C)[C@H](CN(C)S(=O)(=O)c1ccc(Cl)cc1)O2`, the activity change, negative = cytotoxicity is 8.28% (inactive).

On to `C[C@H](NC(=O)C[C@@H]1CC[C@@H]2[C@H](COC[C@@H](O)CN2C(=O)Nc2cccc(F)c2)O1)c1ccccc1`, for which the activity change, negative = cytotoxicity is -12.7% (inactive).

Consider `COc1ccc(NC(=O)Nc2ccc3c(c2)C(=O)N([C@H](C)CO)C[C@@H](C)[C@H](CN(C)S(=O)(=O)c2ccc(Cl)cc2)OCCCC[C@@H](C)O3)cc1`, for which the activity change, negative = cytotoxicity is -9.56% (inactive).

For the molecule `CCC(=O)N1CCC1(C)C(=O)Nc1ccc(C)c(C)c1` (stereo not drawn), the activity change, negative = cytotoxicity is -11.7% (inactive).

Turning to `O=C(NC1CCCCC1)N[C@H]1C=C[C@@H](CC(=O)N2CCOCC2)O[C@@H]1CO`, the activity change, negative = cytotoxicity was 17.4% (inactive).

As to `COc1ccccc1C(=O)Nc1ccc2c(c1)C(=O)N(C)C[C@@H](OC)[C@H](C)CN(C)[C@@H](C)CO2`, the activity change, negative = cytotoxicity is 0.103% (inactive).

Consider `CC(=O)N1[C@H](CO)[C@H](c2ccc(-c3ccccc3)cc2)[C@H]1CNC(=O)C1CC1`, for which the activity change, negative = cytotoxicity was -33.3% (inactive).

Take `CCC(=O)N1[C@H](CO)[C@H](c2ccccc2)[C@@H]1CN(CC)C(=O)c1cccc(F)c1`: the activity change, negative = cytotoxicity is 25% (inactive).

In the case of `CC(C)NC(=O)Nc1ccc2c(c1)C(=O)N([C@@H](C)CO)C[C@@H](C)[C@H](CN(C)C(=O)Cc1ccccc1)OCCCC[C@@H](C)O2`, the activity change, negative = cytotoxicity is 37.8% (inactive).

On to `CO[C@@H]1CN(C)C(=O)c2ccc(NC(=O)NC(C)C)cc2OC[C@H](C)NC[C@@H]1C`, for which the activity change, negative = cytotoxicity is -4.93% (inactive).

As for `C[C@H]1CN([C@@H](C)CO)C(=O)c2cc(-c3cncnc3)cnc2O[C@H]1CN(C)C(=O)c1ccccc1F`, the activity change, negative = cytotoxicity is 4.74% (inactive).

On to `Cc1cc(C(=O)NC(=S)Nc2ccccc2N2CCOCC2)ccc1[N+](=O)[O-]`, for which the activity change, negative = cytotoxicity was -23.2% (inactive).

In the case of `CN(C)C(=O)c1ccc(-c2ccc([C@H]3[C@H](CO)N4CCCCN(CCC(F)(F)F)C[C@@H]34)cc2)cc1`, the activity change, negative = cytotoxicity was -23.6% (inactive).

As to `COCC#Cc1cnc2c(c1)C(=O)N([C@H](C)CO)C[C@H](C)[C@H](CN(C)C(=O)C1CC1)O2`, the activity change, negative = cytotoxicity is -5.58% (inactive).

On to `CO[C@H]1CN(C)C(=O)c2ccc(NC(C)=O)cc2OC[C@H](C)N(C(=O)c2ccncc2)C[C@@H]1C`, for which the activity change, negative = cytotoxicity was -20% (inactive).

For the molecule `C[C@@H]1CN([C@H](C)CO)C(=O)c2c(c3ccccc3n2C)-c2ccccc2CO[C@H]1CN(C)S(=O)(=O)c1cccs1`, the activity change, negative = cytotoxicity is 1.01% (inactive).

Consider `C[C@H](CO)N1C[C@H](C)[C@@H](CN(C)C(=O)c2cccc(F)c2)Oc2cc(-c3cncnc3)ccc2S1(=O)=O`, for which the activity change, negative = cytotoxicity was -22.6% (inactive).

With `C[C@H](O)C#Cc1cnc2c(c1)C(=O)N([C@@H](C)CO)C[C@@H](C)[C@@H](CN(C)C(=O)Cc1ccncc1)O2`, the activity change, negative = cytotoxicity was 0.451% (inactive).

In the case of `O=C(Oc1ccc2c3c(c(=O)oc2c1)CCCC3)c1ccco1`, the activity change, negative = cytotoxicity was -27.5% (inactive).

Consider `CCCNC(=O)N1C[C@@H]2[C@H](c3ccccc31)[C@H](CO)N2Cc1ccc(OC)cc1`, for which the activity change, negative = cytotoxicity was 2.66% (inactive).

As for `Cc1ccc(OCCn2c(=S)[nH]c3ccccc32)c(C(C)C)c1`, the activity change, negative = cytotoxicity is -49.7% (inactive).

Regarding `Cc1ccc(NC(=O)[C@H](C)NC(=O)C2CCN(C(=O)[C@@H](N)C(C)C)CC2)cc1`, the activity change, negative = cytotoxicity is -1.97% (inactive).

On to `C[C@H]1CN([C@@H](C)CO)C(=O)c2cccc(NS(=O)(=O)c3cn(C)cn3)c2O[C@@H]1CN(C)CC1CCCCC1`, for which the activity change, negative = cytotoxicity was -5.42% (inactive).

For the molecule `C[C@@H]1CN([C@H](C)CO)C(=O)c2cc(NC(=O)Nc3cccc4ccccc34)ccc2O[C@@H](C)CCCCO[C@@H]1CN(C)Cc1ccc2c(c1)OCO2`, the activity change, negative = cytotoxicity was -13.2% (inactive).

For the molecule `C[C@@H]1CN([C@@H](C)CO)C(=O)Cc2cc(NC(=O)Nc3cccc4ccccc34)ccc2O[C@@H]1CN(C)S(=O)(=O)c1cccs1`, the activity change, negative = cytotoxicity is 153% (inactive).

As to `C[C@@H]1CN([C@@H](C)CO)C(=O)c2cc(NC(=O)CCN3CCOCC3)ccc2O[C@@H]1CN(C)Cc1ccc(C(=O)O)cc1`, the activity change, negative = cytotoxicity was -11.9% (inactive).

`N#C[C@@H]1[C@@H](c2ccccc2)[C@@H](CO)N1C(=O)Cc1ccccc1`: the activity change, negative = cytotoxicity is -0.39% (inactive).

As for `COc1ccc(S(=O)(=O)Nc2ccc3c(c2)C(=O)N([C@@H](C)CO)C[C@H](C)[C@@H](CN(C)C)OCCCC[C@H](C)O3)cc1`, the activity change, negative = cytotoxicity is -9.62% (inactive).

Turning to `COCC(=O)NC[C@@H]1N[C@@H](CO)[C@H]1c1ccc(C2=CCCC2)cc1`, the activity change, negative = cytotoxicity was 26.4% (inactive).

On to `CC(C)c1ccc(S(=O)(=O)N2CCN(CC(=O)Nc3ccc4c(c3)OCO4)CC2)cc1`, for which the activity change, negative = cytotoxicity was -0.379% (inactive).

Turning to `CC(C)NC(=O)Nc1ccc2c(c1)CC(=O)N([C@@H](C)CO)C[C@@H](C)[C@@H](CN(C)S(=O)(=O)c1ccc(Cl)cc1)O2`, the activity change, negative = cytotoxicity was 6.41% (inactive).

In the case of `C[C@H](CO)N1C[C@H](C)[C@H](CN(C)Cc2ccccc2)OCCCC[C@H](C)Oc2ccc(NS(=O)(=O)c3cccs3)cc2C1=O`, the activity change, negative = cytotoxicity is -20.5% (inactive).

The same assay, now with this note: HEK293T viability, ATP luminescence (CellTiter-Glo), 48 h; at 35 µM (top of the series).
As for `Cc1cccc(N2CCN(C(=O)C3CCC(=O)N3C(C)C)CC2C)c1` (stereo not drawn), the activity change, negative = cytotoxicity is 21% (inactive).

The assay is the same for the next values; noted with them: HEK293T viability, ATP luminescence (CellTiter-Glo), 48 h; at 42 µM (top of the series).
In the case of `CCCC(=O)N1CCCC1(C)C(=O)Nc1ccc(C)c(C)c1` (stereo not drawn), the activity change, negative = cytotoxicity is -11.7% (inactive).

`CCCC(=O)N1CCC1(C)C(=O)Nc1cc(C)ccc1C` (stereo not drawn): the activity change, negative = cytotoxicity was -18.3% (inactive).

The values are drawn from PubChem BioAssay AID687005 (Broad Institute, 2013).
